Values of other authors, collected in patent US20140051733A1, “FEBUXOSTAT PHARMACEUTICAL COMPOSITIONS” (Dr. Reddy's Laboratories Ltd., priority 2012, published 2014).
Like-named read-outs stand apart in the source and are kept apart here.

What was measured:
[1] = Class 2 = low solubility, high permeability

- solubility (in acetonitrile): slightly soluble
- solubility (in dimethylformamide): freely soluble
- solubility (in dimethylsulfoxide): soluble
- solubility (in ethanol): sparingly soluble
- solubility (in methanol): slightly soluble
- solubility (in water): practically insoluble
- Biopharmaceutics Classification System class [1]: Class 2
Structure (SMILES): Cc1nc(-c2ccc(OCC(C)C)c(C#N)c2)sc1C(=O)O [Febuxostat, 2-[3-cyano-4-(2-methylpropoxy)phenyl]-4-methylthiazole-5-carboxylic acid]
